T/C data for 22 compounds are collected here from PubChem BioAssay AID248 (DTP/NCI, 2004).

This assay relates to L1210 leukemia ip in BDF1 mice, survival T/C. The assay can be described thus: NCI In Vivo Anticancer Drug Screen. Data for tumor model L1210 Leukemia (intraperitoneal) in B6D2F1 (BDF1) mice. The following applies: endpoint: mean survival time, higher = longer survival. The method in brief: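 Tumor cells were implanted, animals were treated, and survival was followed. The result divides the treated measurement by the vehicle-control measurement.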

Where [1] appears, read: dose: 100.0 mg/kg/injection, schedule: Q01DX009 (ip), vehicle: Klucel (hydroxypropylcellulose) (HPC).
Setting [2] is: dose: 200.0 mg/kg/injection, schedule: Q01DX009 (ip), vehicle: Klucel (hydroxypropylcellulose) (HPC).
The mark [3] stands for this setting: dose: 75.0 mg/kg/injection, schedule: Q01DX001 (ip), vehicle: saline.
Setting [4] is: dose: 150.0 mg/kg/injection, schedule: Q01DX001 (ip), vehicle: saline.
The mark [5] stands for this setting: dose: 300.0 mg/kg/injection, schedule: Q01DX001 (ip), vehicle: saline.
Where [6] appears, read: dose: 100.0 mg/kg/injection, schedule: Q01DX009 (ip), vehicle: saline with Tween-80.
[7] abbreviates: dose: 200.0 mg/kg/injection, schedule: Q01DX009 (ip), vehicle: saline with Tween-80.
Setting [8] is: dose: 100.0 mg/kg/injection, schedule: Q01DX001 (ip), vehicle: saline.
[9] abbreviates: dose: 200.0 mg/kg/injection, schedule: Q01DX001 (ip), vehicle: saline.
[10] abbreviates: dose: 400.0 mg/kg/injection, schedule: Q01DX001 (ip), vehicle: saline.
Where [11] appears, read: dose: 400.0 mg/kg/injection, schedule: Q01DX009 (ip), vehicle: saline with Tween-80.
[12] abbreviates: dose: 100.0 mg/kg/injection, schedule: Q04DX003 (ip), vehicle: saline with Tween-80.
Setting [13] is: dose: 200.0 mg/kg/injection, schedule: Q04DX003 (ip), vehicle: saline with Tween-80.

Values joined by “and” are separate entries in the source; they are usually repeats but may differ in a detail not shown here. Identical values can stand only once. Toxic doses and inconclusive results are not listed.

Consider `Nc1nc(N)c2cc(CCc3ccc(C(=O)NC(CCC(=O)O)C(=O)O)cc3)ccc2n1` (stereo not drawn), for which the T/C reads like this: (dose: 39.0 micrograms/kg/injection, schedule: Q01DX009 (ip), vehicle: Klucel (hydroxypropylcellulose) (HPC)) 111 % of control; (dose: 78.0 micrograms/kg/injection, schedule: Q01DX009 (ip), vehicle: Klucel (hydroxypropylcellulose) (HPC)) 117 % of control; (dose: 156.0 micrograms/kg/injection, schedule: Q01DX009 (ip), vehicle: Klucel (hydroxypropylcellulose) (HPC)) 117 % of control; (dose: 625.0 micrograms/kg/injection, schedule: Q01DX009 (ip), vehicle: Klucel (hydroxypropylcellulose) (HPC)) 170 % of control.
`CC(C)(COC(=O)COc1ccc(Cl)cc1Cl)[N+](=O)[O-]`: the T/C under setting [1] was 97 % of control and the T/C under setting [2] is 92 % of control.
As to `COc1cc(CCN(C)C)cc(OC)c1OC`, the T/C is, setting by setting: under setting [3], 95 % of control; under setting [4], 101 % of control; under setting [5], 102 % of control.
For the compound `Nc1nc[nH]c1-c1n[nH]c(=O)[nH]1`, the T/C is, setting by setting: (dose: 100.0 mg/kg/injection, schedule: Q01DX001 (ip), vehicle: Klucel (hydroxypropylcellulose) (HPC)) 108 % of control; (dose: 200.0 mg/kg/injection, schedule: Q01DX001 (ip), vehicle: Klucel (hydroxypropylcellulose) (HPC)) 104 % of control.
`CC(=O)Oc1ccc(/C=C/c2ccncc2)cc1`: the T/C runs as follows: under setting [1], 97 % of control; under setting [2], 100 % of control; (dose: 400.0 mg/kg/injection, schedule: Q01DX009 (ip), vehicle: Klucel (hydroxypropylcellulose) (HPC)) 104 % of control.
`c1cc(C2=NCCN2)ccc1C1=NCCN1`: the T/C was 104 % of control (dose: 15.0 mg/kg/injection, schedule: Q01DX Z (ip), vehicle: saline); 102 % of control (dose: 30.0 mg/kg/injection, schedule: Q01DX Z (ip), vehicle: saline); 106 % of control (dose: 60.0 mg/kg/injection, schedule: Q01DX Z (ip), vehicle: saline); 101 % of control (dose: 120.0 mg/kg/injection, schedule: Q01DX Z (ip), vehicle: saline).
Consider `CCCC1(CCC)OOC(CCC)(CCC)OO1`, for which the T/C is, setting by setting: (dose: 50.0 mg/kg/injection, schedule: Q01DX009 (ip), vehicle: saline with Tween-80) 96 % of control; under setting [6], 96 % of control; under setting [7], 110 % of control.
As for `O=C(COc1ccccc1)Nc1ccccc1C(=O)O`, the T/C (dose: 100.0 mg/kg/injection, schedule: Q01DX001 (ip), vehicle: gum acacia) is 97 % of control; the T/C (dose: 200.0 mg/kg/injection, schedule: Q01DX001 (ip), vehicle: gum acacia) is 90 % of control; the T/C (dose: 400.0 mg/kg/injection, schedule: Q01DX001 (ip), vehicle: gum acacia) is 90 % of control.
Turning to `O=C(Nc1ccc(F)c([N+](=O)[O-])c1)Nc1cc([N+](=O)[O-])ccc1F`, the T/C is, setting by setting: (dose: 100.0 mg/kg/injection, schedule: Q04DX003 (ip), vehicle: Klucel (hydroxypropylcellulose) (HPC)) 96 % of control; (dose: 200.0 mg/kg/injection, schedule: Q04DX003 (ip), vehicle: Klucel (hydroxypropylcellulose) (HPC)) 93 % of control; (dose: 400.0 mg/kg/injection, schedule: Q04DX003 (ip), vehicle: Klucel (hydroxypropylcellulose) (HPC)) 101 % of control.
`Cc1ccnc(NC(=O)Nc2ccccc2F)c1`: the T/C reads like this: under setting [8], 97 % of control and 106 % of control; under setting [6], 92 % of control; (dose: 100.0 mg/kg/injection, schedule: Q04DX003 (ip), vehicle: saline) 95 % of control; under setting [9], 101 % of control; under setting [7], 96 % of control; (dose: 200.0 mg/kg/injection, schedule: Q04DX003 (ip), vehicle: saline) 101 % of control. Moreover, the T/C reads like this: under setting [10], 97 % of control and 88 % of control; under setting [11], 91 % of control; (dose: 400.0 mg/kg/injection, schedule: Q04DX003 (ip), vehicle: saline) 101 % of control.
For the compound `O=C1CC(=Nc2ccc([N+](=O)[O-])cc2)NN1c1c(Cl)cc(Cl)cc1Cl`, the T/C runs as follows: under setting [6], 97 % of control; under setting [7], 101 % of control; under setting [11], 90 % of control.
Turning to `CCCCCCCCCCCCCCCCC/C=N\NC(=O)CCCC(=O)N/N=C/CCCCCCCCCCCCCCCCC`, the T/C was 90 % of control (dose: 50.0 mg/kg/injection, schedule: Q01DX001 (ip), vehicle: other) and 88 % of control (dose: 200.0 mg/kg/injection, schedule: Q01DX001 (ip), vehicle: other).
As for `C/C(=C\c1ccccc1)C(=O)C1C(c2ccccc2)CC(=O)C(C)C1c1ccccc1` (stereo not drawn), the T/C is 98 % of control (dose: 50.0 mg/kg/injection, schedule: Q04DX002 (ip), vehicle: saline + alcohol); 91 % of control (dose: 100.0 mg/kg/injection, schedule: Q04DX002 (ip), vehicle: saline + alcohol); 91 % of control (dose: 200.0 mg/kg/injection, schedule: Q04DX002 (ip), vehicle: saline + alcohol).
On to `C/C(=N\NC(N)=S)C(O)c1ccccc1` (stereo not drawn), for which the T/C was 105 % of control (dose: 5.0 mg/kg/injection, schedule: Q01DX001 (ip), vehicle: other); 100 % of control (dose: 10.0 mg/kg/injection, schedule: Q01DX001 (ip), vehicle: other); 105 % of control (dose: 20.0 mg/kg/injection, schedule: Q01DX001 (ip), vehicle: other); 100 % of control (dose: 40.0 mg/kg/injection, schedule: Q01DX001 (ip), vehicle: other); 105 % of control (dose: 80.0 mg/kg/injection, schedule: Q01DX001 (ip), vehicle: other).
Consider `N=c1c2c(C(N)=O)cn(C3OC(CO)C(O)C3O)c2ncn1O` (stereo not drawn), for which the T/C was 122 % of control (dose: 2.5 mg/kg/injection, schedule: Q01DX001 (ip), vehicle: saline with Tween-80); 117 % of control (dose: 5.0 mg/kg/injection, schedule: Q01DX001 (ip), vehicle: saline with Tween-80); 123 % of control (dose: 10.0 mg/kg/injection, schedule: Q01DX001 (ip), vehicle: saline with Tween-80); 153 % of control (dose: 10.0 mg/kg/injection, schedule: Q01DX001 (ip), vehicle: saline); 180 % of control (dose: 20.0 mg/kg/injection, schedule: Q01DX001 (ip), vehicle: saline).
Take `OC(c1ccccc1)(c1ccccc1)C(F)(F)C(F)(F)C(F)(F)F`: the T/C is, setting by setting: (dose: 222.0 mg/kg/injection, schedule: Q01DX Z (ip), vehicle: methylcellulose (MC)) 89 % of control; (dose: 333.0 mg/kg/injection, schedule: Q01DX Z (ip), vehicle: methylcellulose (MC)) 96 % of control.
On to `CC1(c2cccnc2)OCCO1`, for which the T/C is 97 % of control under setting [3], 98 % of control under setting [4] and 95 % of control under setting [5].
In the case of `Oc1ccc(Cl)cc1/C=N/NC(=S)Nc1cccc2cccnc12`, the T/C was 111 % of control under setting [8], 100 % of control under setting [9] and 91 % of control under setting [10].
Regarding `COC1OC2COc3ccccc3OC2C2C1N2C(c1ccccc1)N1C2C(OC)OC3COc4ccccc4OC3C21` (stereo not drawn), the T/C is 93 % of control (dose: 100.0 mg/kg/injection, schedule: Q04DX002 (ip), vehicle: Klucel (hydroxypropylcellulose) (HPC)); 100 % of control (dose: 200.0 mg/kg/injection, schedule: Q04DX002 (ip), vehicle: Klucel (hydroxypropylcellulose) (HPC)); 107 % of control (dose: 400.0 mg/kg/injection, schedule: Q04DX002 (ip), vehicle: Klucel (hydroxypropylcellulose) (HPC)).
In the case of `CS(=O)(=O)n1c(C(O)c2ccccc2)nc2ccccc21` (stereo not drawn), the T/C is 100 % of control (dose: 100.0 mg/kg/injection, schedule: Q01DX001 (ip), vehicle: carboxymethylcellulose (CMC)); 94 % of control (dose: 200.0 mg/kg/injection, schedule: Q01DX001 (ip), vehicle: carboxymethylcellulose (CMC)); 89 % of control (dose: 400.0 mg/kg/injection, schedule: Q01DX001 (ip), vehicle: carboxymethylcellulose (CMC)).
Turning to `CN/N=C/c1ccc([N+](=O)[O-])o1`, the T/C is, setting by setting: under setting [12], 97 % of control; under setting [13], 88 % of control.
In the case of `OC(Cc1ccncc1)(c1ccccc1)c1ccccc1`, the T/C reads like this: under setting [12], 88 % of control; under setting [13], 88 % of control; (dose: 400.0 mg/kg/injection, schedule: Q04DX003 (ip), vehicle: saline with Tween-80) 109 % of control.
